{"source": "patent US20200023072A1", "about": "“ANTIBODY-DRUG CONJUGATES WITH IMMUNE-MEDIATED THERAPY AGENTS” (MEDIMMUNE LIMITED, priority 2016, published 2020)", "system": "CT26 mouse colon cancer cells", "experiment": "In vivo vaccination/challenge mouse model with payload-treated CT26 cells", "settings": "CT26 cells treated 24 hours with tubulysin (1 uM) or PBD (10 nM), implanted in left flank of BALB/c mice; challenge with untreated CT26 cells in opposite flank 1 week later; assessed on day 65", "protocol": "CT26 cells were treated with either […] AZD9185 (tubulysin) or […] SG3199 (PBD) for 24 hours so that the cells were committed to cell death (as assessed by lack of growth in re-plating experiments) but still >95% viable. Five-hundred thousand of these treated cells were inoculated into the left flank of BALB/c mice to test for their ability to vaccinate for subsequent right flank challenge. Controls included cells treated with 75 Gy radiation or taken through 3 freeze-thaw cycles (necrotic). Challenge on the right flank utilized 3×10^6 untreated CT26 cells 7 days later.\nIn order to test this, tubulysin and PBD were used in a vaccination/challenge mouse model. CT26 mouse colon cancer cells were treated with either tubulysin (1 uM) or PBD (10 nM) for a period of 24 hours (FIG. 1A). At this point in time, the cells were still viable but committed subsequent cell death.\nThese dying but not yet dead cells were implanted subcutaneously into the left flank of BALB/c mice to test if they could vaccinate against subsequent challenge with a tumor forming dose of untreated CT26 cells in the opposite flank 1 week later. Irradiated cells were included as a positive control and necrotic cells which were taken through a freeze thaw cycle were included as a negative control.", "data": [{"smiles": "CC[C@H](C)[C@H](NC(=O)[C@H]1CCCCN1C)C(=O)N(COC(=O)CC(C)C)[C@H](C[C@@H](OC(C)=O)c1nc(C(=O)N[C@@H](Cc2ccc(C)cc2)C[C@H](C)C(=O)O)cs1)C(C)C", "note": "[Tubulysin]", "values": [{"measurement": "mice protected from tumor formation", "result": 40, "unit": "%"}]}, {"smiles": "COc1cc2c(cc1OCCCCCOc1cc3c(cc1OC)C(=O)N1C=C(C)C[C@H]1C=N3)N=C[C@@H]1CC(C)=CN1C2=O", "note": "[PBD]", "values": [{"measurement": "mice protected from tumor formation", "result": 70, "unit": "%"}]}]}
